These compounds were tested against T1, human CXCR3 (N-delta 4) (Homo sapiens, UniProt P49682) (assay: Human CXCR3 (N-delta 4) scintillation proximity assay (SPA), [125I] IP-10 binding). Settings: IC50 rating; Ba/F3-hCXCR3 (N-delta 4) membranes, 25 pM [125I] IP-10.
T1 construct: CD8 leader; Flag tag; expressed in transfected cells; membranes used
T1 sequence (P49682 5-368 limits assumed): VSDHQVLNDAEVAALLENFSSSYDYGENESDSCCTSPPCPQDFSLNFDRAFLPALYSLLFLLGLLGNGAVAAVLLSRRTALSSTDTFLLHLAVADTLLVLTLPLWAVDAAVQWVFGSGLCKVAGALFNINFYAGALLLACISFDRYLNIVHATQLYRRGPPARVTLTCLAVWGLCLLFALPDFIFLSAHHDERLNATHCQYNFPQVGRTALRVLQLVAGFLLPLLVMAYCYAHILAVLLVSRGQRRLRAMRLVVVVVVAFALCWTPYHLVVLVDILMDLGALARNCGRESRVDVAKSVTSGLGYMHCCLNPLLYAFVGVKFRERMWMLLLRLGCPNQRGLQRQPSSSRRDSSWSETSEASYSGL
Method in brief: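 Membranes from mouse Ba/F3 pro-B cells stably expressing Flag-tagged human CXCR3 (N-delta 4) were coupled to SPA beads. IP-10 was added together with titrated compounds to start the reaction, and bound radioligand was read by scintillation proximity.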

Structure (SMILES)	IC50 [nM]
CC[C@H]1CN(c2ncc(C(=O)NC)cc2Cl)CCN1C1CCN(Cc2ccc(Cl)cc2)CC1 [compound 223]	< 25
CC[C@H]1CN(c2ncc(C(=O)NC)cc2Cl)CCN1C1CCN(Cc2ccc(Cl)cc2F)CC1 [compound 224]	< 25
C[C@H]1CN(c2ncc(C(=O)NCC3CCCCC3)cc2Br)CCN1C1CCN(Cc2ccc(Cl)cc2)CC1 [compound 225]	< 25
C[C@H]1CN(c2ncc(C(=O)NCc3ccc(F)c(F)c3)cc2Cl)CCN1C1CCN(Cc2ccc(Cl)cc2)CC1 [compound 226]	< 25
CCNC(=O)c1cnc(N2CCN(C3CCN(Cc4ccc(Cl)cc4)CC3)[C@@H](C)C2)c(Cl)c1 [compound 227]	< 25
C[C@H]1CN(c2ncc(C(=O)NCC3CCCCC3)cc2Cl)CCN1C1CCN(Cc2ccc(Cl)cc2)CC1 [compound 228]	< 25
CCNC(=O)c1cc(Cl)c(N2CCN(C3CCN(Cc4ccc(Cl)cc4F)CC3)[C@@H](CC)C2)[n+]([O-])c1 [compound 229]	< 25
C[C@H]1CN(c2ncc(C(=O)NCc3ccc(Cl)c(Cl)c3)cc2Cl)CCN1C1CCN(Cc2ccc(C#N)cc2)CC1 [compound 230]	< 25
CCNC(=O)c1cnc(N2CCN(C3CCN([C@H](C)c4ccc(Cl)cc4)CC3)[C@@H](C)C2)c(Cl)c1 [compound 231]	< 25
CNC(=O)c1cnc(N2CCN(C3CCN([C@H](C)c4ccc(Cl)cc4)CC3)[C@@H](C)C2)c(Cl)c1 [compound 232]	< 25
C[C@H]1CN(c2ncc(C(=O)Nc3ccon3)cc2Cl)CCN1C1CCN(Cc2ccc(Cl)cc2)CC1 [compound 233]	< 25
C[C@H]1CN(c2ncc(C(=O)NCc3ccc(F)c(F)c3)cc2Cl)CCN1C1CCN(Cc2ccc(C#N)cc2)CC1 [compound 234]	< 25
C[C@@H]1CN(c2ncc(C(=O)NCC3CCCCC3)cc2Cl)CCN1C1CCN(Cc2ccc(C#N)cc2)CC1 [compound 235]	< 25
CC(C)NC(=O)c1cnc(N2CCN(C3CCN(Cc4ccc(Cl)cc4)CC3)[C@@H](C)C2)c(Cl)c1 [compound 236]	< 25
CNC(=O)c1cnc(N2CCN(C3CCN(Cc4ccc(Cl)cc4)CC3)[C@@H](C)C2)c(Br)c1 [compound 237]	< 25
CCNC(=O)c1cnc(N2CCN(C3CCN(C(C)c4ccc(Cl)cc4)CC3)[C@@H](C)C2)c(Cl)c1 (stereo partly drawn) [compound 239]	< 25
CNC(=O)c1cnc(N2CCN(C3CCN(Cc4ccc(Br)cc4F)CC3)[C@@H](C)C2)c(Cl)c1 [compound 240]	< 25
CNC(=O)c1cnc(N2CCN(C3CCN(Cc4ccc(Cl)cc4)CC3)[C@@H](C)C2)c(Cl)c1 [compound 241]	< 25
C[C@@H]1CN(c2ncc(C(=O)NCC3CCCCC3)cc2Cl)CCN1C1CCN(Cc2ccc(Cl)cc2)CC1 [compound 242]	< 25
CNC(=O)c1cnc(N2CCN(C3CCN(C(C)c4ccc(Cl)cc4)CC3)[C@@H](C)C2)c(Cl)c1 (stereo partly drawn) [compound 243]	< 25
CC[C@H]1CN(c2ncc(C(N)=O)cc2Cl)CCN1C1CCN(Cc2ccc(Cl)cc2F)CC1 [compound 244]	< 25

Structure (SMILES)	IC50 [nM]
CC[C@H]1CN(c2ncc(C(=O)NC)cc2Cl)CCN1C1CCN(C(=O)c2ccc(Br)cc2)CC1 [compound 245]	< 25
CCNC(=O)c1cnc(N2CCN(C3CCN(C(=O)c4ccc(Cl)cc4)CC3)[C@@H](CC)C2)c(Cl)c1 [compound 246]	< 25
C[C@@H](NC(=O)c1cnc(N2CCN(C3CCN(Cc4ccc(Cl)cc4)CC3)[C@@H](C)C2)c(Cl)c1)C1CCCCC1 [compound 247]	< 25
C[C@H]1CN(c2ncc(C(=O)NCc3ccc(F)c(F)c3)cc2Cl)CCN1C1CCN(C(=O)c2ccc(C#N)cc2)CC1 [compound 248]	< 25
CCNC(=O)c1cnc(N2CCN(C3CCN(Cc4ccc(Cl)cc4F)CC3)C(C3CC3)C2)c(Cl)c1 (stereo not drawn) [compound 249]	< 25
C[C@@H]1CN(c2ncc(C(=O)NCC3CCCCC3)cc2Cl)CCN1C1CCN(C(=O)c2ccc(C#N)cc2)CC1 [compound 250]	< 25
CCNC(=O)c1cnc(N2CCN(C3CCN(Cc4ccc(Cl)cc4F)CC3)[C@@H](C)C2)c(Cl)c1 [compound 251]	< 25
CNC(=O)c1cnc(N2CCN(C3CCN(Cc4ccc(Cl)cc4)C(C)C3)[C@@H](C)C2)c(Cl)c1 (stereo partly drawn) [compound 252]	< 25
O=C(NCc1ccc(F)c(F)c1)c1cnc(N2CCN(C3CCN(Cc4ccc(Cl)cc4)CC3)CC2)c(Br)c1 [compound 253]	< 25
C[C@@H]1CN(c2ncc(C(=O)NCc3ccc(F)c(F)c3)cc2Cl)CCN1C1CCN(Cc2ccc(Cl)cc2)CC1 [compound 254]	< 25
CNC(=O)c1cnc(N2CCN(C3CCN(Cc4ccc(Cl)cc4Cl)CC3)[C@@H](C)C2)c(Cl)c1 [compound 255]	< 25
CCNC(=O)c1cnc(N2C[C@H](CC)N(C3CCN(C(=O)c4ccc(Cl)cc4)CC3)C[C@H]2C)c(Cl)c1 [compound 256]	< 25
CC[C@H]1CN(c2ncc(C(=O)NCCO)cc2Cl)CCN1C1CCN(C(CO)c2ccc(Cl)cc2)CC1 (stereo partly drawn) [compound 257]	< 25
CNC(=O)c1cnc(N2CCN(C3CCN(Cc4ccc(Cl)cc4F)CC3)[C@@H](C)C2)c(Cl)c1 [compound 258]	< 25
CC[C@H]1CN(c2ncc(C(=O)NC)cc2Cl)CCN1C1CCN(C(=O)c2ccc(Cl)cc2)CC1 [compound 259]	< 25
CCNC(=O)c1cnc(N2CCN(C3CCN(C(=O)c4ccc(Cl)cc4F)CC3)[C@@H](CC)C2)c(Cl)c1 [compound 260]	< 25
C[C@H]1CN(c2ncc(C(=O)Nc3ccc(F)c(F)c3)cc2Cl)CCN1C1CCN(Cc2ccc(Cl)cc2)CC1 [compound 261]	< 25
CCNC(=O)c1cnc(N2CCN(C3CCN(C(=O)c4ccc(-n5cccc5)cc4)CC3)[C@@H](CC)C2)c(Cl)c1 [compound 262]	< 25
CCNC(=O)c1cnc(N2C[C@H](C)N(C3CCN(Cc4ccc(Cl)cc4F)CC3)C[C@H]2C)c(Cl)c1 [compound 263]	< 25
C[C@@H]1CN(c2ncc(C(=O)NCc3ccc(Cl)c(Cl)c3)cc2Cl)CCN1C1CCN(Cc2ccc(Cl)cc2)CC1 [compound 264]	< 25
O=C(NCc1ccc(F)c(F)c1)c1cnc(N2CCN(C3CCN(Cc4ccc(Br)cc4)CC3)CC2)c(Br)c1 [compound 265]	< 25

Structure (SMILES)	IC50 [nM]
C[C@H]1CN(c2ncc(C(=O)NCc3ccc(Cl)c(Cl)c3)cc2Cl)CCN1C1CCN(C(=O)c2ccc(C#N)cc2)CC1 [compound 266]	< 25
O=C(NCc1ccc(F)c(F)c1)c1cnc(N2CCN(C3CCN(Cc4ccc(Br)cc4)CC3)CC2)c(Cl)c1 [compound 267]	25 to 100
O=C(NCc1ccc(F)c(F)c1)c1cnc(N2CCN(C3CCN(Cc4ccc([N+](=O)[O-])cc4)CC3)CC2)c(Cl)c1 [compound 268]	25 to 100
CCNC(=O)c1cnc(N2CCN(C3CCN(C(=O)c4ccc(C#N)cc4)CC3)[C@@H](CC)C2)c(Cl)c1 [compound 269]	25 to 100
C[C@@H]1CN(c2ncc(C(=O)NCc3ccc(F)c(F)c3)cc2Cl)CCN1C1CCN(Cc2ccc(C#N)cc2)CC1 [compound 270]	25 to 100
CNC(=O)c1cnc(N2CCN(C3CCN([C@@H]4CCc5cc(Cl)ccc54)CC3)[C@@H](C)C2)c(Cl)c1 [compound 271]	25 to 100
O=C(NCc1ccc(F)cc1)c1cnc(N2CCN(C3CCN(Cc4ccc([N+](=O)[O-])cc4)CC3)CC2)c(Cl)c1 [compound 272]	25 to 100
CC[C@H]1CN(c2ncc(C(=O)NN)cc2Cl)CCN1C1CCN(Cc2ccc(Cl)cc2F)CC1 [compound 273]	25 to 100
CC[C@H]1CN(c2ncc(C(=O)NCCO)cc2Cl)CCN1C1CCN(C(C(=O)OC)c2ccc(Cl)cc2)CC1 (stereo partly drawn) [compound 274]	25 to 100
CCNC(=O)c1cnc(N2CCN(C3CCN(Cc4ccc(Cl)cc4F)CC3)C(CC(F)(F)F)C2)c(Cl)c1 (stereo not drawn) [compound 275]	25 to 100
COc1ccc(CN2CCC(N3CCN(c4ncc(C(=O)NCc5ccc(Cl)c(Cl)c5)cc4Br)CC3)CC2)cc1 [compound 276]	25 to 100
N#Cc1ccc(CN2CCC(N3CCN(c4ncc(C(=O)NCc5ccc(F)c(F)c5)cc4Br)CC3)CC2)cc1 [compound 277]	25 to 100
CNC(=O)c1cnc(N2CCN(C3CCN([C@H]4CCc5cc(Cl)ccc54)CC3)[C@@H](C)C2)c(Cl)c1 [compound 278]	25 to 100
O=C(NCc1ccc(Cl)c(Cl)c1)c1cnc(N2CCN(C3CCN(Cc4ccc(Cl)cc4)CC3)CC2)c(Br)c1 [compound 279]	25 to 100
COc1ccc(CN2CCC(N3CCN(c4ncc(C(=O)NCc5ccc(F)c(F)c5)cc4Br)CC3)CC2)cc1 [compound 280]	25 to 100
C[C@H]1CN(c2ncc(C(N)=O)cc2Cl)CCN1C1CCN(Cc2ccc(Cl)cc2)CC1 [compound 281]	25 to 100
C[C@@H]1CN(c2ncc(C(=O)NCc3ccc(Cl)c(Cl)c3)cc2Cl)CCN1C1CCN(Cc2ccc(C#N)cc2)CC1 [compound 282]	25 to 100
O=C(NCCOc1ccccc1)c1cnc(N2CCN(C3CCN(Cc4ccc(Cl)cc4)CC3)CC2)c(Br)c1 [compound 283]	25 to 100
O=C(NCc1ccc(Cl)c(Cl)c1)c1cnc(N2CCN(C3CCN(Cc4ccc(Br)cc4)CC3)CC2)c(Br)c1 [compound 284]	25 to 100
N#Cc1ccc(C(=O)N2CCC(N3CCN(c4ncc(C(=O)NCc5ccc(Cl)c(Cl)c5)cc4Br)CC3)CC2)cc1 [compound 285]	25 to 100
O=C(NCc1ccc(Cl)c(Cl)c1)c1cnc(N2CCN(C3CCN(Cc4ccc(Cl)cc4)CC3)CC2)c(Cl)c1 [compound 286]	25 to 100
